What was measured:
[1] = tested on: male Swiss albino mice
Experimental: Pharmacodyn. 1971, 190, pages 213-218 in male Swiss albino mice (weight 20-25 g, Harlan Iberica, S. Feliu de Codinas, Barcelona, Spain).
Opioid dependency is developed in the mice by intraperitoneal administration of the opioid in a suitable dose known to those skilled in the art, e.g. 5 mg/kg/day for 4 consecutive days for morphine. Withdrawal symptoms are then induced by the intravenous administration of a suitable opioid antagonist in a dose known to those skilled in the art, for example, 2 mg/kg naloxone in case of morphine, 30 minutes after the administration of the final dose of the opioid is completed.
In the 30 minute period following the naloxone administration the mice show typical withdrawal symptoms, namely jumps and shakes (of the wet dog shake type), which are counted and registered.
The active substance combination is also administered to the mice for 4 consecutive days. After the administration of 2 mg/kg naloxone 30 minutes after the administration of the final dose of the active substance combination has been completed, the mice are closely watched for withdrawal symptoms, namely jumps and shakes (of the wet dog shake type), which are then counted and registered.
The influence of the active substance combination on withdrawal symptoms has been determined as described above.

[2] = tested on: male Swiss mice; assay: Hot plate test in mice; assay type: in vivo; details: hot plate 55° C., Cizolirtine (as Citrate salt) 20 mg/kg i.p., Morphine 5 mg/kg s.c., combination 20 + 5 mg/kg; for % Analgesic activity 0.5 hours: 0.5 hours after administration; for % Analgesic activity 1 hour: 1 hour after administration; for % Analgesic activity 2 hours: 2 hours after administration
Experimental: The analgesic activity of the inventive active substance combination is determined in male Swiss mice (weight 20-25 g, Harlan Iberica, S. Feliu de Codinas, Barcelona, Spain) as described in the publication of G. Woolfe and A. D. MacDonald, J. Pharm. Exp. Ther. 1944, 80, pages 300-307. The respective description of this publication is incorporated by reference and forms part of the present disclosure.
According to this test the mice are put onto a plate, which is heated to 55° C. and the time is determined until the mice show signs of pain such as vigorous and repeated licking of the paws, jumping or pulling back the paws. The mice are kept on the hot plate for no longer than 40 seconds in order to avoid the development of cutaneous lesions. At first the untreated mice are subjected to the hot-plate test to determine a baseline for their pain induced behaviour. After 10 minutes the vehicle, the active substances and the inventive active substance combination to be tested are administered to different groups of mice. 0.5 hours, 1 hour and 2 hours after the administration the animals are put onto the hot plate and the time is measured until they show signs of pain. The analgesic efficacy of the active substances or active substance combination is calculated on the basis of the values obtained for the comparison group of mice which is only administered the vehicle.

[3] = 30 minute period after 2 mg/kg naloxone, Morphine 5 mg/kg/day s.c. over 4 days, alone or with Cizolirtine citrate 40 mg/kg/day i.p.

CN(C)CCOC(c1ccccc1)c1ccnn1C.O=C(O)CC(O)(CC(=O)O)C(=O)O (racemic) [Cizolirtine, (±)-5-[α-[2-(Dimethylamino)ethoxy]benzyl]-1-methyl-1H-pyrazole citrate]
withdrawal symptoms associated with morphine on co-administration (in words) ([1]; table B, co-administered with morphine, opioid amount not reduced): significantly reduced | % Analgesic activity 0.5 hours [2]: 25.8% | % Analgesic activity 1 hour [2]: 17.1% | % Analgesic activity 2 hours [2]: 23.4%

CN1CC[C@]23c4c5ccc(O)c4O[C@H]2[C@@H](O)C=C[C@H]3[C@H]1C5 [Morphine]
Number of jumps [1, 3]: 6.6 | Number of shakes [1, 3]: 16.3 | % Analgesic activity 0.5 hours [2]: 48.6% | % Analgesic activity 1 hour [2]: 34.8% | % Analgesic activity 2 hours [2]: 15.8%

— patent US20070082893A1, “Active substance combination” (LABORATORIOS DEL DR. ESTEVE S.A, priority 2004, published 2007)
